{"source": "patent US20220040166A1", "about": "“Methods and Compositions of Treating an Ophthalmic Condition” (KARTOS THERAPEUTICS, priority 2018, published 2022)", "key": {"[1]": {"assay": "Tolerability of intravitreally administered solution of the compound of Formula (I)", "method": "Based on expected solubility, a maximum feasible intravitreal dose of 44 μg of the compound of Formula (I) in 50 uL pH 7.85 aqueous buffer (sterile saline for injection, phosphate buffered saline or HEPES buffered saline) was administered to Dutch Belted rabbits.\nOphthalmoscopic examinations (slit lamp), ocular scoring, and intraocular pressure were observed through 5 days post-administration."}, "[2]": {"assay": "In vitro release of Comp-A from nanoparticles by dialysis against HBS (pH 7) at 37° C.", "format": "physicochemical", "details": "dialyzed against >1000X volume HBS (pH 7) at 37° C.", "method": "• 5. Immediately following formulation, NPs were diluted to 4× volume in HBS. • 6. Pall 30 kDa MWCO centrifugal filters were used for solvent exchange to HBS and to concentrate formulations (2000×g, 21° C.). • 7. Particle size and polydispersity index (PDI) were analyzed using a Malvern Zetasizer (dynamic light scattering; DLS). […] Final formulations were sterile filtered through 0.22 μm syringe filters and stored at −80° C. in MrFrosty freezing containers. The following day formulations were moved to cryogenic freezer boxes for storage prior to shipping. • 9. A sample of each formulation was thawed to room temperature and dialyzed against >1000 volumes of 1×HBS (pH 7) at 37° C. for 6 hours. Samples were collected at 2 mins, 30 mins, 2 hours and 6 hours and analyzed for drug content by UPLC to determine particle release characteristics."}, "[3]": {"test_system": "MDM2-amplified tumor cell line SJSA", "assay": "Induction of p21 mRNA by Comp-A in SJSA cells", "format": "cell-based"}, "[4]": {"details": "44 μg in 50 uL pH 7.85 aqueous buffer, intravitreal, rabbit"}}, "note": "Marks after values point to notes of the source that are not given here."}
{"smiles": "CC(C)[C@@H](CS(=O)(=O)C(C)C)N1C(=O)[C@@](C)(CC(=O)O)C[C@H](c2cccc(Cl)c2)[C@H]1c1ccc(Cl)cc1", "note": "[Comp-A, 2-((3R,5R,6S)-5-(3-chlorophenyl)-6-(4-chlorophenyl)-1-((S)-1-(isopropylsulfonyl)-3-methylbutan-2-yl)-3-methyl-2-oxopiperidin-3-yl) Acetic Acid]", "values": [{"measurement": "Changes in intra-ocular pressure", "setting": "[1]; [4]", "result": "no changes"}, {"measurement": "Ophthalmologic observations through 5 days", "setting": "[1]; [4]", "result": "no ophthalmologic observations"}, {"measurement": "Tolerability", "setting": "[1]; 22 microgram/eye in PBS (1×) and in HEPES buffered saline", "result": "no findings"}, {"measurement": "Tolerability", "setting": "[1]; 44 microgram/eye in PBS (1×) and in HEPES buffered saline", "result": "no findings"}, {"measurement": "% Release after 2 h dialysis", "setting": "[2]; 2 h", "result": "<1", "unit": "%"}, {"measurement": "% Release after 6 h dialysis", "setting": "[2]; 6 h", "result": "0* %"}, {"measurement": "EC50", "setting": "[3]", "result": 0.0262, "unit": "µg/mL"}]}
